“And” between values parts separate entries of the source, which are not always exact repeats. Equal entries are not always repeated.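 Method: 48-hour compound exposure of cells in 96-well plates, five concentrations, linear interpolation of endpoints. Here, GI50 denotes the concentration required for 50% inhibition of growth. TGI denotes the concentration required for complete inhibition of growth.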

Test systems include 786-0 renal; ACHN renal; HOP-62 NSCLC; HT29 colon; MDA-MB-231 breast; NCI-H460 lung; RPMI-8226 leukemia; SK-MEL-28 melanoma; U251 CNS; UACC-257 melanoma.
Holding throughout (assay): NCI-60 cell line screen, 48 h

As for `CC(=O)Nc1c(I)c(C(=O)O)c(I)c(N(C)C(C)=O)c1I`, the GI50 in the experiment on 786-0 renal, in the experiment with ACHN renal, with HOP-62 NSCLC, in the experiment on HT29 colon, in the experiment with MDA-MB-231 breast and with NCI-H460 lung was above 100 µM throughout. In addition, the GI50 in the experiment on RPMI-8226 leukemia, in the experiment with SK-MEL-28 melanoma, in the experiment on U251 CNS and with UACC-257 melanoma was above 100 µM in each case. Besides, the TGI with 786-0 renal, in the experiment on ACHN renal, in the experiment on HOP-62 NSCLC, with HT29 colon, with MDA-MB-231 breast and with NCI-H460 lung was above 100 µM throughout. For the same compound, the TGI in the experiment on RPMI-8226 leukemia, with SK-MEL-28 melanoma, in the experiment with U251 CNS and with UACC-257 melanoma was above 100 µM throughout.

As to `COc1cc(-c2ccc(Nc3ccccc3C(=O)O)c(OC)c2)ccc1Nc1ccccc1C(=O)O`, the TGI in the experiment with 786-0 renal was above 100 µM; in the experiment with ACHN renal, above 94.6 µM; in the experiment on HOP-62 NSCLC it was 49.8 µM; in the experiment with HT29 colon it was above 100 µM; with MDA-MB-231 breast it was above 91.6 µM; in the experiment with NCI-H460 lung, 36.7 µM. The TGI is above 95.8 µM in the experiment on RPMI-8226 leukemia, above 100 µM in the experiment on SK-MEL-28 melanoma, 37.3 µM with U251 CNS and above 100 µM in the experiment on UACC-257 melanoma.

On to `O=C1/C(=C\c2ccc([N+](=O)[O-])cc2)CS(=O)(=O)C/C1=C/c1ccc([N+](=O)[O-])cc1`, for which the GI50 in the experiment on 786-0 renal was 0.133 µM; in the experiment with ACHN renal, 0.19 µM; with HOP-62 NSCLC, 0.284 µM; in the experiment on HT29 colon, 0.127 µM; in the experiment on MDA-MB-231 breast, 0.36 µM; in the experiment with NCI-H460 lung, 0.256 µM. Moreover, the GI50 in the experiment on SK-MEL-28 melanoma is 0.188 µM; with U251 CNS, 0.0731 µM; in the experiment on UACC-257 melanoma it was 0.931 µM. Also, the TGI was 0.356 µM and 0.359 µM in the experiment with 786-0 renal; 0.405 µM and 2.19 µM with ACHN renal; 3.94 µM in the experiment on HOP-62 NSCLC; 0.382 µM and 2.77 µM in the experiment with HT29 colon; 0.533 µM in the experiment with MDA-MB-231 breast; 2.48 µM in the experiment on NCI-H460 lung. Besides, the TGI is 0.547 µM with RPMI-8226 leukemia; 0.444 µM and 3.59 µM in the experiment on SK-MEL-28 melanoma; 0.483 µM and 2 µM in the experiment with U251 CNS; 5.33 µM with UACC-257 melanoma.

Regarding `O=C(O)c1ccccc1-c1ccccc1C(=O)Nc1ccc2c(c1)Cc1ccccc1-2`, the TGI in the experiment with 786-0 renal is above 100 µM; in the experiment with ACHN renal, above 100 µM; with HOP-62 NSCLC it was above 100 µM; in the experiment on HT29 colon, 70.1 µM; in the experiment with MDA-MB-231 breast, above 100 µM; in the experiment with NCI-H460 lung, 38.1 µM. The TGI is 70.4 µM in the experiment on RPMI-8226 leukemia, above 100 µM with SK-MEL-28 melanoma, above 100 µM with U251 CNS and 78.3 µM in the experiment on UACC-257 melanoma.

Regarding `O=C1C=CC(=O)c2c1cc1ccccc1c2O`, the TGI amounted to 18.7 µM in the experiment with 786-0 renal; 8.26 µM with ACHN renal; 26.6 µM in the experiment with HOP-62 NSCLC; 24 µM with HT29 colon; 4.25 µM in the experiment on MDA-MB-231 breast; 41.3 µM with NCI-H460 lung. In addition, the TGI in the experiment on RPMI-8226 leukemia is above 26 µM; in the experiment with SK-MEL-28 melanoma, 20 µM; in the experiment on U251 CNS, 27.1 µM; in the experiment with UACC-257 melanoma it was 7.91 µM.

Regarding `O=c1c(-c2ccc3c(c2)OCO3)coc2c(CO)c(O)ccc12`, the GI50 is 1.97 µM in the experiment with 786-0 renal; 1.82 µM in the experiment on ACHN renal; 2.07 µM in the experiment with HOP-62 NSCLC; 16.9 µM in the experiment with HT29 colon; 2.01 µM in the experiment on MDA-MB-231 breast; 2.6 µM in the experiment on NCI-H460 lung. Further, the GI50 in the experiment on RPMI-8226 leukemia was 3.64 µM; in the experiment with SK-MEL-28 melanoma, 5.91 µM; in the experiment with U251 CNS, 1.92 µM; with UACC-257 melanoma it was 2.59 µM. Further, the TGI in the experiment with 786-0 renal was determined as 4.6 µM; in the experiment on ACHN renal, 5.34 µM; in the experiment with HOP-62 NSCLC it was 5.01 µM; with HT29 colon, 44.8 µM; in the experiment on MDA-MB-231 breast, 5.09 µM; in the experiment on NCI-H460 lung, 7.85 µM. For the same compound, the TGI in the experiment on RPMI-8226 leukemia was 53.6 µM; in the experiment with SK-MEL-28 melanoma it was 22.7 µM; with U251 CNS, 5.03 µM; in the experiment on UACC-257 melanoma it was 7.46 µM.

Regarding `S=C(Nc1ccc(Cl)cc1)SC1CCCCC1`, the TGI in the experiment with 786-0 renal was above 100 µM; in the experiment on ACHN renal, 36.6 µM; in the experiment on HOP-62 NSCLC, 87.5 µM; with HT29 colon, 50.9 µM; with MDA-MB-231 breast, above 100 µM; in the experiment with NCI-H460 lung, 86.7 µM. Further, the TGI in the experiment with RPMI-8226 leukemia is above 100 µM; in the experiment with SK-MEL-28 melanoma, 49.6 µM; in the experiment on U251 CNS, above 100 µM; with UACC-257 melanoma it was 76.5 µM.

Take `O=[N+]([O-])c1ccc(Oc2cccc(C(F)(F)F)c2)c([N+](=O)[O-])c1`: the GI50 with 786-0 renal is 3.24 µM; with ACHN renal it was 3.39 µM; in the experiment with HOP-62 NSCLC, 4.01 µM; in the experiment on HT29 colon it was 4.68 µM; with MDA-MB-231 breast, 3.17 µM; with NCI-H460 lung, 3.1 µM. For the same compound, the GI50 in the experiment on RPMI-8226 leukemia is 2.6 µM; with SK-MEL-28 melanoma it was 6.47 µM; with U251 CNS, 3.61 µM; in the experiment with UACC-257 melanoma, 5.46 µM. For the same compound, the TGI was determined as 9.81 µM in the experiment on 786-0 renal; 13.8 µM in the experiment with ACHN renal; 16.1 µM in the experiment with HOP-62 NSCLC; 16.2 µM in the experiment with HT29 colon; 10.2 µM in the experiment on MDA-MB-231 breast; 10.2 µM in the experiment on NCI-H460 lung. Besides, the TGI with RPMI-8226 leukemia was 7.62 µM; with SK-MEL-28 melanoma, 19.9 µM; with U251 CNS, 14.2 µM; in the experiment with UACC-257 melanoma, 18.7 µM.

As to `O=C1c2cccc3cccc(c23)C(=O)N1CC#Cc1ccc2c3c(cccc13)C(=O)N(CCN1CCNCC1)C2=O`, the GI50 is 1.86 µM with 786-0 renal; 2.75 µM in the experiment on ACHN renal; 5.09 µM in the experiment with HOP-62 NSCLC; 2 µM in the experiment with HT29 colon; 1.85 µM with MDA-MB-231 breast; 1.92 µM in the experiment with NCI-H460 lung. For the same compound, the GI50 in the experiment on RPMI-8226 leukemia was 2.12 µM; in the experiment with SK-MEL-28 melanoma it was 1.9 µM; in the experiment with U251 CNS it was 1.87 µM; in the experiment on UACC-257 melanoma, 18.5 µM. Also, the TGI in the experiment on 786-0 renal is 3.53 µM; in the experiment with ACHN renal it was 7.96 µM; in the experiment on HOP-62 NSCLC, 30.1 µM; with HT29 colon, 3.96 µM; with MDA-MB-231 breast, 3.67 µM; with NCI-H460 lung it was 3.6 µM. The TGI was 4.49 µM in the experiment on RPMI-8226 leukemia, 3.55 µM with SK-MEL-28 melanoma, 3.78 µM in the experiment with U251 CNS and 38.1 µM in the experiment with UACC-257 melanoma.

As to `O=S(=O)(CC(O)C(Cl)(Cl)Cl)NNc1ccccc1` (centres undefined), the TGI with 786-0 renal, in the experiment on ACHN renal, with HOP-62 NSCLC, with HT29 colon, with MDA-MB-231 breast and in the experiment with NCI-H460 lung was above 100 µM throughout. The TGI in the experiment with RPMI-8226 leukemia, in the experiment on SK-MEL-28 melanoma, in the experiment with U251 CNS and in the experiment with UACC-257 melanoma was above 100 µM in each case.

These data come from PubChem BioAssay (NCI).
